How the values were obtained:
[1] = molecular target: hGYS2 enzyme (recombinant hGYS2/GN1 protein) (Homo sapiens (Human), UniProt P54840); assay: GYS2 coupled enzyme assay (PK/LDH); type: biochemical; conditions: geometric mean of at least 2 assay runs on separate days, read-out: Avg_IC50
From the text: The GYS2 coupled enzyme assay is a kinetic biochemical assay that indirectly quantifies the rate of glycogen synthesis by coupling the conversion of GYS2 substrate UDP-glucose into UDP with downstream enzymatic reactions. UDP is released from UDP-glucose as glucose monomers are linked into the growing glycogen strand by GYS2. The coupled assay then proceeds with pyruvate kinase utilizing UDP and phospho(enol)pyruvate (PEP) to form pyruvate. Lactate dehydrogenase then converts pyruvate and NADH into lactate and NAD+. Oxidation of NADH to NAD+ can be measured continuously with a plate reader by quantifying the decrease in NADH absorbance at 340 nm over time.
Compounds that inhibit the hGYS2 enzyme and, subsequently, the downstream conversion of NADH to NAD+, were tested using assay ready plates (black, clear bottom 384 well plates) in a final DMSO reaction volume of 2.5% DMSO. The Assay Buffer contained 50 mM Tris pH 7.5, 2 mM MgCl2, and 100 mM KCl. Fresh stocks of BSA at a final concentration of 0.02% and TCEP 1 mM were added before splitting buffer into hGYS2 buffer and substrate buffer. To the hGYS2 buffer, rabbit liver glycogen was added at a final concentration of 0.2% glycogen. Glucose-6-Phosphate was added at 2 mM, recombinant hGYS2/GN1 protein was added at 200 nM to the substrate buffer, phosphoenolpyruvate (PEP) was added at 2 mM, UDP-Glucose was added at 2 mM, NADH was added at 0.6 mM, and Pyruvate Kinase/Lactate Dehydrogenase was added at 20 units/mL. The reaction was initiated by mixing hGYS2 buffer and substrate buffer at a 1:1 ratio. Both buffers were plated using a liquid dispensing device with hGYS2 buffer plated first followed by the substrate buffer. Plates were spun briefly to eliminate air bubbles and are immediately read in continuous mode at an absorbance of 340 nm, for 10 time points in one-minute increments, for a total of 10 minutes. The slope from these 10 time points was normalized to the positive and negative control wells. The duplicate % inhibition values are then averaged and fit to a Hill equation for dose response according to the Levenberg-Marquardt algorithm with the Hill equation maximum set to 100 and the minimum set to 0.
The results are shown in Table 4 below, which reports the IC50 of each compound. Unless otherwise specified, IC50 values are reported as the geometric mean of at least 2 assay runs on separate days. As shown in the table below, the compounds of the present invention are not potent inhibitors of human GYS2. Unless otherwise specified, IC50 values are reported as the geometric mean of at least two assay runs on separate days. Each run represents the average of a technical replicate, where each compound was assayed twice in the same plate. A superscript “#” symbol in Table 4 indicates results from a single assay run.

[2] = molecular target: hGYS1 enzyme (recombinant hGYS1/GN1 protein) (Homo sapiens (Human), UniProt P13807); assay: GYS1 coupled enzyme assay (PK/LDH); type: biochemical; conditions: hGYS1/GN1 50 nM, UDP-Glucose 0.8 mM, G6P 1 mM; geometric mean of at least 2 runs
Sequence of hGYS1 enzyme (recombinant hGYS1/GN1 protein) (P13807 whole entry): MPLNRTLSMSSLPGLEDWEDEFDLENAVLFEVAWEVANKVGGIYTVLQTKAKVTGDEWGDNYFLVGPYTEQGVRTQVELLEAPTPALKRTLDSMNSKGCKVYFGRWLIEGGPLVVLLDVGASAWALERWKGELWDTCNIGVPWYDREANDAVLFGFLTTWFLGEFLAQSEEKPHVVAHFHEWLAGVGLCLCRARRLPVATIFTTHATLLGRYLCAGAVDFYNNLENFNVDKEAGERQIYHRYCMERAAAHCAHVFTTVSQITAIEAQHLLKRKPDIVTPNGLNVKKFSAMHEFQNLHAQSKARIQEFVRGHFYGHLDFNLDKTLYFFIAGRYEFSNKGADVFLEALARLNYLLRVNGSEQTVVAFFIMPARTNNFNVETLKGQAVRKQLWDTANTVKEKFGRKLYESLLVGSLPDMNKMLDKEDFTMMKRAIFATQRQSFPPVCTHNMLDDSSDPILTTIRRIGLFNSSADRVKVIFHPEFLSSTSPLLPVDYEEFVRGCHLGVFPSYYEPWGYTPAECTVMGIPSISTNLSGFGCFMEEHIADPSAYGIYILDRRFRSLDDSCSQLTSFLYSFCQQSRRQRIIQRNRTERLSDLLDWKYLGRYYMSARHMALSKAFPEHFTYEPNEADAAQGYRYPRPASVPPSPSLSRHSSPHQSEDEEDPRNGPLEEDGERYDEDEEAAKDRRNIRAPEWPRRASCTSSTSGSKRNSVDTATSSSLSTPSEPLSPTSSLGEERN
Sequence of hGYS1 enzyme (recombinant hGYS1/GN1 protein) (P46976 whole entry partner): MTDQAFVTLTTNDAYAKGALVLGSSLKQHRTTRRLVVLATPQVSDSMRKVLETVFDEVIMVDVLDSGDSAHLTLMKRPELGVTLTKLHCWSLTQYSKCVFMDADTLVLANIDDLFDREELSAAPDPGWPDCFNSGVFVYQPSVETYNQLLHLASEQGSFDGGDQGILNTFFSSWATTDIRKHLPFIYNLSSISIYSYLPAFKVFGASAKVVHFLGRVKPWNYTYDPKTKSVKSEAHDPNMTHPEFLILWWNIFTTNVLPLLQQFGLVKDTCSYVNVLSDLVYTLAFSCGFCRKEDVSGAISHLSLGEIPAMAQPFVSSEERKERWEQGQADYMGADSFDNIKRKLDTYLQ

Sequence of hGYS2 enzyme (recombinant hGYS2/GN1 protein) (P54840 whole entry): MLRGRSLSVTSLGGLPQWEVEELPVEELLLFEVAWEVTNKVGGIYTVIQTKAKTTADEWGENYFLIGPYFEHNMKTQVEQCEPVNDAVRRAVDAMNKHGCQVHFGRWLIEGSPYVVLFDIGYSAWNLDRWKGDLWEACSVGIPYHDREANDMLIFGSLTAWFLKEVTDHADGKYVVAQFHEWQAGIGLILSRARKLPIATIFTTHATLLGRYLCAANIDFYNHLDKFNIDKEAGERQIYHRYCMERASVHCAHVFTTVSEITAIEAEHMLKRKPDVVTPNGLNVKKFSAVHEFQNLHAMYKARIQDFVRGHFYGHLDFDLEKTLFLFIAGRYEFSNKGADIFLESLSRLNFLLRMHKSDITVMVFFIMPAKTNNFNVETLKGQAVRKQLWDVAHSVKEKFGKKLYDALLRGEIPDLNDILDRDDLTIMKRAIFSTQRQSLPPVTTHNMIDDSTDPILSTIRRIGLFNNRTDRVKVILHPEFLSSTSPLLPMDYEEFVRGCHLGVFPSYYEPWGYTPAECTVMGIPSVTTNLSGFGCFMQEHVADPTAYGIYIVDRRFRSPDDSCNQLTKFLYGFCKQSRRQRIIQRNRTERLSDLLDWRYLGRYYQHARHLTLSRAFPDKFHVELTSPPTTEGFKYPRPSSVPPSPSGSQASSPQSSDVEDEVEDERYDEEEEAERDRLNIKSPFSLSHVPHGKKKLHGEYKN
Sequence of hGYS2 enzyme (recombinant hGYS2/GN1 protein) (P46976 whole entry partner): as the sequence (P46976 whole entry partner) above

| IC50 [1] [nM] | IC50 [2] [nM] | Compound |
| --- | --- | --- |
| > 100000 | 53 | CC(C)c1ccc([C@@H](NC(=O)[C@@H]2C[C@@H](F)CN2C(=O)CNC(=O)N2CC(C(F)(F)F)C2)c2ccccc2)nc1 [Compound 291, (2S,4R)-4-fluoro-N-[(S)-phenyl[5-(propan-2-yl)pyridin-2-yl]methyl]-1-(2-{[3-(trifluoromethyl)azetidin-1-carbonyl]amino}acetyl) pyrrolidine-2-carboxamide] |
| > 100000 | 1440 | CC(=O)N1CCC[C@H]1C(=O)N[C@H](c1ccc(C(C)C)cc1)c1ccccc1C [Compound 640, (2S)-1-acetyl-N-[(R)-(2-methylphenyl)[4-(propan-2-yl)phenyl]methyl] pyrrolidine-2-carboxamide] |
| > 100000 | 130 | CC(C)c1ccc([C@@H](NC(=O)[C@@H]2C[C@@H](F)CN2C(=O)CCCc2ccncc2)c2ccccc2)cc1 [Compound 95, (2S,4R)-4-fluoro-N-[(S)-phenyl[4-(propan-2-yl)phenyl]methyl]-1-[4-(pyridin-4-yl)butanoyl]pyrrolidine-2-carboxamide] |
| > 100000 | 47 | Cc1ccccc1OCC(=O)N1C[C@H](F)C[C@H]1C(=O)N[C@@H](c1ccccc1)c1ccc(C(C)C)cc1 [Compound 91, (2S,4R)-4-fluoro-1-[2-(2-methylphenoxy)acetyl]-N-[(S)-phenyl[4-(propan-2-yl)phenyl]methyl]pyrrolidine-2-carboxamide] |
| > 100000 | 128 | CC(=O)N[C@H](CCC(=O)O)C(=O)N1C[C@H](F)C[C@H]1C(=O)N[C@@H](c1ccccc1)c1ccc(C(C)C)cc1 [Compound 197, (4R)-4-acetamido-5-[(2S,4R)-4-fluoro-2-{[(S)-phenyl[4-(propan-2-yl)phenyl]methyl]carbamoyl}pyrrolidin-1-yl]-5-oxopentanoic acid] |
| > 100000 | 3740 | CC(=O)N1C[C@H](O)C[C@H]1C(=O)N[C@@H](c1ccccc1)c1ccc(C(C)C)cc1 [Compound 205, (2S,4R)-1-acetyl-4-hydroxy-N-[(S)-phenyl[4-(propan-2-yl)phenyl]methyl]pyrrolidine-2-carboxamide] |
| > 100000 | 12 | CC(C)c1ccc([C@@H](NC(=O)[C@@H]2C[C@@H](F)CN2C(=O)Cc2c[nH]c3ccccc23)c2ccccc2)cc1 [Compound 86, (2S,4R)-4-fluoro-1-[2-(1H-indol-3-yl)acetyl]-N-[(S)-phenyl[4-(propan-2-yl)phenyl]methyl]pyrrolidine-2-carboxamide] |
| > 100000 | 142 | CC(C)c1ccc(C(NC(=O)[C@@H]2C[C@@H](F)CN2C(=O)Cc2cnn[nH]2)c2ccc(N)nc2)cc1F (single isomer, unassigned) [Compound 620, (2S,4R)-N-[(R) or (S)-(6-aminopyridin-3-yl)[3-fluoro-4-(propan-2-yl)phenyl]methyl]-4-fluoro-1-[2-(1H-1,2,3-triazol-5-yl)acetyl]pyrrolidine-2-carboxamide] |
| > 100000 | 208 | CC(C)c1ccc([C@@H](NC(=O)[C@@H]2C[C@@H](F)CN2C(=O)CCc2ccc(=O)[nH]n2)c2ccccc2)cc1 [Compound 114, (2S,4R)-4-fluoro-1-[3-(6-oxo-1,6-dihydropyridazin-3-yl)propanoyl]-N-[(S)-phenyl[4-(propan-2-yl)phenyl]methyl]pyrrolidine-2-carboxamide] |
| > 100000 | 70 | CC(=O)N1CCCO[C@@H](C(=O)N2C[C@H](F)C[C@H]2C(=O)N[C@@H](c2ccccc2)c2ccc(C(C)C)cc2)C1 [Compound 158, (2S,4R)-1-[(2R)-4-acetyl-1,4-oxazepane-2-carbonyl]-4-fluoro-N-[(S)-phenyl[4-(propan-2-yl)phenyl]methyl]pyrrolidine-2-carboxamide] |
| > 100000 | 25 | CC(C)c1ccc([C@@H](NC(=O)[C@@H]2C[C@@H](F)CN2C(=O)Cc2cn(C)nn2)c2ccccc2)cc1 (stereo in doubt) [Compound 229, (2RS,4R)-4-fluoro-1-[2-(1-methyl-1H-1,2,3-triazol-4-yl)acetyl]-N-[(S)-phenyl[4-(propan-2-yl)phenyl]methyl]pyrrolidine-2-carboxamide] |
| > 100000 | 106 | CC(C)c1ccc([C@@H](NC(=O)[C@@H]2C[C@@H](F)CN2C(=O)C(C)n2ccnn2)c2ccccc2)cc1 (stereo partly drawn) [Compound 33, (2S,4R)-4-fluoro-N-[(S)-phenyl[4-(propan-2-yl)phenyl]methyl]-1-[2-(1H-1,2,3-triazol-1-yl)propanoyl]pyrrolidine-2-carboxamide] |
| > 100000 | 105 | CC(C)c1ccc([C@@H](NC(=O)[C@@H]2C[C@@H](F)CN2C(=O)C(C)n2ccccc2=O)c2ccccc2)cc1 (stereo partly drawn) [Compound 73, (2S,4R)-4-fluoro-1-[2-(2-oxo-1,2-dihydropyridin-1-yl)propanoyl]-N-[(S)-phenyl[4-(propan-2-yl)phenyl]methyl]pyrrolidine-2-carboxamide] |
| > 100000 | 224 | CC(C)c1ccc([C@@H](NC(=O)[C@@H]2C[C@@H](F)CN2C(=O)CCCn2ccnc2)c2ccccc2)cc1 [Compound 75, (2S,4R)-4-fluoro-1-[4-(1H-imidazol-1-yl)butanoyl]-N-[(S)-phenyl[4-(propan-2-yl)phenyl]methyl]pyrrolidine-2-carboxamide] |
| > 100000 | 8 | CC(C)c1ccc([C@@H](NC(=O)[C@@H]2C[C@@H](F)CN2C(=O)Cn2ncc(N3CCNCC3)n2)c2ccccc2)cc1F [Compound 376, (2S,4R)-4-fluoro-N-[(S)-[3-fluoro-4-(propan-2-yl)phenyl](phenyl)methyl]-1-{2-[4-(piperazin-1-yl)-2H-1,2,3-triazol-2-yl]acetyl}pyrrolidine-2-carboxamide] |
| > 100000 | 45 | CC(C)c1ccc([C@@H](NC(=O)[C@@H]2C[C@@H](F)CN2C(=O)Cc2c[nH]cn2)c2ccccc2)cc1 [Compound 18, (2S,4R)-4-fluoro-1-[2-(1H-imidazol-4-yl)acetyl]-N-[(S)-phenyl[4-(propan-2-yl)phenyl]methyl]pyrrolidine-2-carboxamide] |
| > 100000 | 15 | Cc1cc(CC(=O)N2C[C@H](F)C[C@H]2C(=O)N[C@@H](c2ccccc2)c2ccc(C(C)C)cc2)nn1C [Compound 83, (2S,4R)-1-[2-(1,5-dimethyl-1H-pyrazol-3-yl)acetyl]-4-fluoro-N-[(S)-phenyl[4-(propan-2-yl)phenyl]methyl]pyrrolidine-2-carboxamide] |
| > 100000 | 387 | CC(=O)N1C[C@H](F)C[C@H]1C(=O)N[C@@H](c1ccccc1)c1ccc(C(C)C)cc1 [Compound 207, (2S,4R)-1-acetyl-4-fluoro-N-[(S)-phenyl[4-(propan-2-yl)phenyl]methyl]pyrrolidine-2-carboxamide] |
| > 100000 | 43 | CC(C)c1ccc([C@@H](NC(=O)[C@@H]2C[C@@H](F)CN2C(=O)Cn2cccn2)c2ccccc2)cc1 (stereo in doubt) [Compound 221, (2S,4RS)-4-fluoro-N-[(S)-phenyl[4-(propan-2-yl)phenyl]methyl]-1-[2-(1H-pyrazol-1-yl)acetyl]pyrrolidine-2-carboxamide] |
| > 100000 | 129 | CC(C)c1ccc([C@@H](NC(=O)[C@@H]2C[C@@H](F)CN2C(=O)CS(C)(=O)=O)c2ccccc2)cc1 [Compound 14, (2S,4R)-4-fluoro-1-(2-methanesulfonylacetyl)-N-[(S)-phenyl[4-(propan-2-yl)phenyl]methyl]pyrrolidine-2-carboxamide] |
| > 100000 | 31 | Cc1ncc(CC(=O)N2C[C@H](F)C[C@H]2C(=O)N[C@@H](c2ccccc2)c2ccc(C(C)C)cc2)s1 [Compound 41, (2S,4R)-4-fluoro-1-[2-(2-methyl-1,3-thiazol-5-yl)acetyl]-N-[(S)-phenyl[4-(propan-2-yl)phenyl]methyl]pyrrolidine-2-carboxamide] |

| Compound | IC50 [1] [nM] | IC50 [2] [nM] |
| --- | --- | --- |
| (2S,4R)-N-[(S)-(4- cyclopropyl-3- fluorophenyl)(phenyl) methyl]-4-fluoro-1- [2-(1H-1,2,3-triazol-5- yl)acetyl]pyrrolidine- 2-carboxamide [Compound 439] | > 100000 | 185 |

Reference: patent publication US11814367B2, “Inhibitors of glycogen synthase 1 (GYS1) and methods of use thereof” (Maze Therapeutics, Inc., priority 2021, dated 2023)
